According to patent US12281363B2, “Methods for detecting antiviral-drug resistant virus” (Secretary of State for Health and Social Care, priority 2018, dated 2025):
pIC50: −log10 of the molar value. Like-named read-outs stand apart in the source and are kept apart here.

System: HSV-1
Experiment: Plaque reduction assay, HSV-1 clinical isolates on Vero cells
Format: cell-based
Conditions: Human alphaherpesvirus 1, Vero
Excerpt: Viral isolates were used to infect a sub-confluent monolayer of Vero cells at a concentration of 75 or 50 plaque forming units (PFU) per well for HSV-1 and HSV-2, respectively. […] CMC medium typically used to create a semisolid interface and prevents indiscrimate viral spreading. Other materials (e.g. agar) may also be used to create this interface.
Cells were fixed with 10% formalin and stained with crystal violet before enumeration of the plaques (microscopic observation or use of fluorescent antibodies for detection is also suitable). The data obtained from these experiments were then expressed as percent inhibition of viral infectivity relative to the no drug control.
Definitions of phenotypic drug susceptibility classification as sensitive or resistant were as follows: ACV, <3 μM or >40 μM; PCV, <10 μM or >40 μM; CDV, <24 μM or >30 μM; FOS, <250 μM or >400 μM; and ACV, <6.5 μM or >40 μM; PCV, <38 μM or >40 μM; FOS, <250 μM or >400 μM for HSV-1 and HSV-2, respectively. Any IC50 values falling in between these sensitive and resistant cut-offs were reported as intermediate resistance.
The phenotype (i.e. reactivity to a drug) of the virus was characterised by the plaque reduction assay as described above.

Nc1nc2c(ncn2COCCO)c(=O)[nH]1 [Aciclovir, acyclovir]
pIC50 (72 h, isolate HPG053, HSV-1 pol L802R + A834S (2405T>G, 2500G>T), also TK R176W, read-out: Drug susceptibility (IC50 value)): < 4.40 | pIC50 (isolate HPG002, HSV-1 pol E992K (2974G>A), also TK insert (G) nt 430-436, pol A1169T, read-out: Drug susceptibility (IC50 value)): 4.67 | pIC50 (isolate HPG003, HSV-1 TK Y172S (515A>C), read-out: Drug susceptibility (IC50 value)): 4.55 | pIC50 (isolate HPG005, HSV-1 TK A37V (110C>T), read-out: Drug susceptibility (IC50 value)): 5.84 | pIC50 (isolate HPG008, HSV-1 TK V204G (611T>G), read-out: Drug susceptibility (IC50 value)): 4.65 | pIC50 (isolate HPG009, HSV-1 pol E992K (2974G>A), also pol A1169T, read-out: Drug susceptibility (IC50 value)): 5.89 | pIC50 (isolate HPG010, HSV-1 TK Q125* (373C>T), read-out: Drug susceptibility (IC50 value)): 5.04 | pIC50 (isolate HPG011, HSV-1 TK Q125* (373C>T), read-out: Drug susceptibility (IC50 value)): 4.86 | pIC50 (isolate HPG013, HSV-1 TK M121I (363G>A), read-out: Drug susceptibility (IC50 value)): 4.73 | pIC50 (isolate HPG013, HSV-1 pol D83A (248A>C), also TK M121I, pol A1169T, read-out: Drug susceptibility (IC50 value)): 4.73 | pIC50 (isolate HPG014, HSV-1 pol A1115T (3343G>A), read-out: Drug susceptibility (IC50 value)): 5.85 | pIC50 (isolate HPG014, HSV-1 pol R993C (2977C>T), read-out: Drug susceptibility (IC50 value)): 5.85 | pIC50 (isolate HPG014, HSV-1 pol T54A (160A>G), read-out: Drug susceptibility (IC50 value)): 5.85 | pIC50 (isolate HPG015, HSV-1 pol 966stop or F965_I966insF (2892_2893insT to 2895_2896insT), read-out: Drug susceptibility (IC50 value)): 5.62 | pIC50 (isolate HPG018, HSV-1 TK frameshift (881delC to 885delC), read-out: Drug susceptibility (IC50 value)): 4.61 | pIC50 (isolate HPG018, HSV-1 pol P1199T (3595C>A), also TK deletion (C) nt 881-885, pol A1169T, read-out: Drug susceptibility (IC50 value)): 4.61 | pIC50 (isolate HPG019, HSV-1 pol K750T (2249A>C), also TK deletion (G) nt 430-436, pol A1169T, read-out: Drug susceptibility (IC50 value)): < 4.40 | pIC50 (isolate HPG020, HSV-1 pol S911N (2732G>A), also pol A1169T, read-out: Drug susceptibility (IC50 value)): 6.25 | pIC50 (isolate HPG021, HSV-1 pol R681Q (2042G>A), also TK deletion (G) nt 430-436, read-out: Drug susceptibility (IC50 value)): < 4.40 | pIC50 (isolate HPG021, HSV-1 pol T839A (2515A>G), also TK deletion (G) nt 430-436, read-out: Drug susceptibility (IC50 value)): < 4.40 | pIC50 (isolate HPG025, HSV-1 pol E850Q (2548G>C), also TK R216C, read-out: Drug susceptibility (IC50 value)): 4.65 | pIC50 (isolate HPG026, HSV-1 pol E850Q (2548G>C), also TK R216C, pol A1169T, read-out: Drug susceptibility (IC50 value)): 4.74 | pIC50 (isolate HPG027, HSV-1 TK V204G (611T>G), also pol S914L, A1169AT, read-out: Drug susceptibility (IC50 value)): < 4.40 | pIC50 (isolate HPG027, HSV-1 pol S914L (2741C>T), also TK V204G, pol A1169T, read-out: Drug susceptibility (IC50 value)): < 4.40 | pIC50 (isolate HPG029, HSV-1 TK Y172S (515A>C), read-out: Drug susceptibility (IC50 value)): < 4.40 | pIC50 (isolate HPG031, HSV-1 pol E1120A (3359A>C), also a TK resistance mutation (footnote e), read-out: Drug susceptibility (IC50 value)): 4.56 | pIC50 (isolate HPG031, HSV-1 pol G139R (415G>C or 415G>A), also a TK resistance mutation (footnote e), read-out: Drug susceptibility (IC50 value)): 4.56 | pIC50 (isolate HPG032, HSV-1 TK 183* (437_438insA), read-out: Drug susceptibility (IC50 value)): 4.56 | pIC50 (isolate HPG033, HSV-1 TK I358L (1072A>C), also TK T287M, read-out: Drug susceptibility (IC50 value)): 4.41 | pIC50 (isolate HPG033, HSV-1 pol N1046T (3137A>C), also TK T287M, pol A1169T, read-out: Drug susceptibility (IC50 value)): 4.41 | pIC50 (isolate HPG035, HSV-1 pol S239L (716C>T), also pol S724N, read-out: Drug susceptibility (IC50 value)): 5.27 | pIC50 (isolate HPG037, HSV-1 TK R256W (766C>T), read-out: Drug susceptibility (IC50 value)): 4.61 | pIC50 (isolate HPG037, HSV-1 TK Y239H (715T>C), read-out: Drug susceptibility (IC50 value)): 4.61 | pIC50 (isolate HPG039, HSV-1 TK 85* or H58fs (169delC, 170delC, 171delC, or 172delC), read-out: Drug susceptibility (IC50 value)): 4.59 | pIC50 (isolate HPG040, HSV-1 pol S911N (2732G>A), also TK deletion (C) nt 896-900, pol A1169T, read-out: Drug susceptibility (IC50 value)): < 4.40 | pIC50 (isolate HPG041, HSV-1 pol S911N (2732G>A), also pol A1169T, read-out: Drug susceptibility (IC50 value)): 6.30 | pIC50 (isolate HPG042, HSV-1 pol A972V (2915C>T), also TK deletion (C) nt 881-885, pol A1169T, read-out: Drug susceptibility (IC50 value)): < 4.40 | pIC50 (isolate HPG042, HSV-1 pol G22R (64G>A), also TK deletion (C) nt 881-885, pol A1169T, read-out: Drug susceptibility (IC50 value)): < 4.40 | pIC50 (isolate HPG043, HSV-1 TK 183* (437_438insA), read-out: Drug susceptibility (IC50 value)): 4.55 | pIC50 (isolate HPG045, HSV-1 TK L49R (146T>G), read-out: Drug susceptibility (IC50 value)): 4.50 | pIC50 (isolate HPG045, HSV-1 pol L419I (1255C>A), also TK L49R, pol A1169T, read-out: Drug susceptibility (IC50 value)): 4.50 | pIC50 (isolate HPG046, HSV-1 TK I166N (497T>A), read-out: Drug susceptibility (IC50 value)): 4.94 | pIC50 (isolate HPG050, HSV-1 TK Q34* (100C>T), read-out: Drug susceptibility (IC50 value)): < 4.40 | pIC50 (isolate HPG051, HSV-1 pol D83A (248A>C), also TK R176stop, read-out: Drug susceptibility (IC50 value)): 4.53 | pIC50 (isolate HPG052, HSV-1 TK Q34* (100C>T), read-out: Drug susceptibility (IC50 value)): 5.07 | pIC50 (isolate HPG053, HSV-1 pol S911N (2732G>A), also TK R176W, pol A1169T, read-out: Drug susceptibility (IC50 value)): < 4.40 | pIC50 (isolate HPG054, HSV-1 pol E992K (2974G>A), also TK insert (G) nt 430-436, pol A1169T, read-out: Drug susceptibility (IC50 value)): 5.08 | pIC50 (read-out: Drug susceptibility (IC50 value), isolate HPG005, HSV-1 TK A192T (574G>A)): 5.84 | pIC50 (read-out: Drug susceptibility (IC50 value), isolate HPG006, HSV-1 pol G121S (361G>A), also a TK resistance mutation (footnote a)): < 4.40 | pIC50 (read-out: Drug susceptibility (IC50 value), isolate HPG012, HSV-1 pol G985E (2954G>A), also TK A93V): < 4.40 | pIC50 (read-out: Drug susceptibility (IC50 value), isolate HPG016, HSV-1 pol A1169T (3505G>A)): 5.45 | pIC50 (read-out: Drug susceptibility (IC50 value), isolate HPG037, HSV-1 TK L69M (205>A), also TK Y239H): 4.61 | pIC50 (read-out: Drug susceptibility (IC50 value), isolate HPG042, HSV-1 TK frameshift (881delC to 885delC)): < 4.40 | pIC50 (read-out: Drug susceptibility (IC50 value), isolate HPG047, HSV-1 pol E680 (2039A>C), also TK deletion (C) nt 548-553, pol A1169T): 4.65
